Assay results reported in US12187758B2 (ROME Therapeutics, Inc., priority 2022, dated 2025).
Where two headings read alike, the source gives them in different places.

Tests used:
Assay type in all cases: cell-based
THP1-Dual KO-TREX1 cells [1] = assay: THP1 TREX1 KO inhibition assay (type 1 interferon response); conditions: Homo sapiens, 144 h, type 1 interferon (QUANTI-LUC), 1 μM 5-aza-2′-deoxycytidine, six days
Method in brief: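 THP1-Dual KO-TREX1 cells were treated with a dose titration of compound, alone or with 1 μM 5-aza-2′-deoxycytidine, for six days at 37 °C. Type 1 interferon was read as secreted luciferase (QUANTI-LUC) in the supernatant, and viability by CellTiter-Glo luminescence.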

human PBMC = assay: Decitabine-stimulated human PBMC assay; conditions: PBMCs, anti-CD3/anti-CD28, decitabine 10 μM, 5 days; FIGS. 3A and 3B
Method: EasySep buffer (32 mL, […] Technologies, cat. #20144) was used to dilute 8 mL of LRSC buffy coat (from fresh Leukopak) with gentle mixing. The diluted buffy coat (20 mL) was transferred into each of two SepMate 50 tubes, and the tubes were filled with 15 mL of Lyphoprep ([…], cat. #07851) density gradient. The SepMate tubes were then centrifuged at 1200 G for 10 minutes at room temperature with the brake on. The top layer of supernatant was collected in SepMate tubes by quickly pouring it into a new 50 mL conical tube. The PBMCs were washed with EasySep buffer×2 by centrifuging at 300 G for 5 minutes. The cells were resuspended in 30 mL of EasySep and centrifuged at 100 G for 5 minutes with the brake off, and the platelets were removed. The cells were then resuspended in 6 mL of 1×RBC lysis buffer (Invitrogen) and incubated at 37° C. for 5 minutes. 25 mL of EasySep buffer was then mixed into the tube and centrifuged at 300 G for 5 minutes. The cells were resuspended in 10 mL of EasySep buffer and the cells were then counted with Cellometer (AO/PI). The PBMCs were resuspended in RPMI1640 (ThermoFisher)+ 10% FBS (HyClone)+μ/s at 3×10^6/mL. The PBMCs (100 μL, 300 k PBMCs) were then seeded in a 96-well flat bottom microplate (Corning) that had been precoated with 100 μL of anti-CD3 antibody (10 μg/mL in PBS, Biolegend) or PBS at 4° C., one day before the assay was commenced.
To each well the following solutions were added 1) 100 μL of cells (final cell number per well is 3×10^5 cell/well); 2) 25 μL of anti-CD28 antibody at 6× (5 μg/mL final concentration, Biolegend); 3) 25 μL of decitabine at 6× (10 μM final concentration); and 4) Compound in DMSO was dispensed directly into each well with a d300e digital dispenser (Tecan). The final concentration of DMSO for each well was normalized to 0.3%. The plate was incubated at 37° C. without any agitation for 5 days. Samples were collected 120 hours after incubation to determine IFN-β […] levels using a U-PLEX Human IFN-β Assay Sector (5PL) (MSD, cat. #K151VIK-2).
After 5 days, the plate was spun down at 100×G for 5 minutes. Supernatants (100 μL) were collected for interferon R (IFN-0) analysis using the MSD assay noted above, and any residual supernatant was stored at −80° C.

[2] = Mitochondria toxicity assay with PC3 cells, in-cell ELISA COX-1; conditions: 5 days treatment
Method in brief: (§1)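 This in-cell ELISA was run on fixed, permeabilized PC3 cells after 5-day exposure to titrated compound, with cytotoxicity measured on a duplicate plate. Results are reported as categories A (<1.0 μM) to E (>100.0 μM).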

[3] = system: SDH-A (succinate dehydrogenase-A); assay: Mitochondria toxicity assay with PC3 cells, in-cell ELISA SDH-A; conditions: 5 days treatment
Method in brief: as §1

PC3 cells = assay: Mitochondria toxicity assay with PC3 cells, cytotoxicity (Cell Titer Glo); conditions: Homo sapiens, PC-3, 120 h, 5 days treatment
Method in brief: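 PC3 cells in F-12K with 10% FBS exposed to a compound dose titration for 5 days at 37° C, 5% CO2. Viability by Cell Titer Glo luminescence after 30 min at room temperature; values binned A (<1.0 μM) to E (>100.0 μM).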

THP1-Dual KO-TREX1 cells [4] = assay: THP1 TREX1 KO inhibition assay, combination dosing; conditions: Homo sapiens, THP1-Dual, read-out: EC50 of Stampidine
Method: Exemplary compounds were tested to determine the effect of combined dosing of two compounds on the type 1 interferon response in THP1 Dual TREX1 KO cells treated with 5-aza-2′-deoxycytidine. Assay procedures and results are described below.
THP1 Dual TREX1 KO cells were purchased from InvivoGen. The THP1-Dual™ KO-TREX1 cells were cultured in RPMI 1640, 10% heat-inactivated fetal bovine serum, 25 mM HEPES, 10 μg/mL blasticidin, and 100 μg/mL Zeocin. THP1-Dual™ KO-TREX1 cells were treated with a dose titration of test compound in the presence of 1 μM 5-aza-2′-deoxycytidine (Sigma, cat #189825). Type 1 Interferon and cell viability were assessed after five days of treatment.
Stock solution of test compounds stampidine and Compound 2 were prepared in DMSO followed by a three-fold dilution in DMSO. The plate was prepared with a matrix of test compound concentrations, with stampidine on the y-axis (final concentrations 3 μM to 0.0003 μM) and Compound 2 on the x-axis (final concentrations 0.3 μM to 0.00003 μM). Additional 50× dilution was prepared in cell culture media for each dilution. 10 μL of diluted test compound was then added to a 384-well plate.
THP1-Dual™ KO-TREX1 cells were treated with 1 μM 5-aza-2′-deoxycytidine. THP1-Dual™ KO-TREX1 cells (50 μL) were added to each well of the 384-well plate containing test compound titration at 10,000 cells/well. Cells were incubated at 37° C., 5% CO2 in a humidified incubator for five days. On day five, 20 μL of cell supernatant was transferred to a 384-well, white-walled plate, followed by addition to each well of 50 μL of QUANTI-LUC solution containing stabilizer. Luminescence was detected on a plate reader according to manufacturer's instructions. Percent inhibition of interferon was calculated using the following analysis: (Average DMSO-Sample)/(Average DMSO-Average 30 μM stampidine)*100.
The remaining cells were assessed for cell viability by adding 30 μl of CellTiter-Glo (Promega, G9683) solution to each well, and placed on a shaker for 10 minutes at room temperature. Luminescence was detected on a plate reader, according to manufacturer's instructions. Percent inhibition of cell viability using CellTiter-Glo was calculated using the following analysis: (Average DMSO−Sample)/(Average DMSO−Average 20 μM viability control reagent)*100.
Combination analysis was performed using the Bivariate Response to Additive Interacting Doses (BRAID) according to Twarog, N. R., et al. Scientific Reports 6:25523 (DOI: 10.1038/srep25523). The best BRAID fit was determined to be k 2.00 (0.583-3.64), where k>0 denotes synergy, k=0 denotes additivity, and k<0 denotes antagonism. Potentiation modeling curves are provided for potentiation of Compound 2 at four concentrations of stampidine (FIG. 7A) and for potentiation of stampidine at four concentrations of Compound 2 (FIG. 7B).

Structure (SMILES) | IC50 (THP1-Dual KO-TREX1 cells [1]) [nM] | IFN-β production (human PBMC) | IC50 [2] [nM] | IC50 [3] [nM] | IC50 (PC3 cells) [nM] | EC50 (THP1-Dual KO-TREX1 cells [4]; Compound 2 0 μM) [nM] | EC50 (THP1-Dual KO-TREX1 cells [4]; Compound 2 0.0001 μM) [nM] | EC50 (THP1-Dual KO-TREX1 cells [4]; Compound 2 0.001 μM) [nM] | EC50 (THP1-Dual KO-TREX1 cells [4]; Compound 2 0.01 μM) [nM]
C#C[C@]1(CO)O[C@@H](n2cnc3c(N)nc(F)nc32)C[C@@H]1O [Compound 23, (2R,3S,5R)-5-(6-amino-2-fluoro-9H-purin-9-yl)-2-ethynyl-2-(hydroxymethyl) tetrahydrofuran-3-ol] | > 1000 | activated production of IFN-β | 10000 to 50000 | 50000 to 100000 | 10000 to 50000 | – | – | – | –
COC(=O)C(C)NP(=O)(OC[C@@H]1C=C[C@H](n2cc(C)c(=O)[nH]c2=O)O1)Oc1ccc(Br)cc1 (stereo partly drawn) [Stampidine, stampidine, reference compound] | – | – | – | – | – | 115 | 103 | 80 | 29
